Legend:
Assay type in all cases: ADME
Prostaglandin E synthase = Prostaglandin E synthase (Homo sapiens, UniProt O14684); assay: Substrates for human microsomal glutathione transferase PTGEs
[1] = target: T1, Glutathione S-transferase Mu 2 (Homo sapiens, UniProt P28161); assay: Substrates for human cytosolic glutathione transferase GSTM2
T1 sequence (P28161 whole entry): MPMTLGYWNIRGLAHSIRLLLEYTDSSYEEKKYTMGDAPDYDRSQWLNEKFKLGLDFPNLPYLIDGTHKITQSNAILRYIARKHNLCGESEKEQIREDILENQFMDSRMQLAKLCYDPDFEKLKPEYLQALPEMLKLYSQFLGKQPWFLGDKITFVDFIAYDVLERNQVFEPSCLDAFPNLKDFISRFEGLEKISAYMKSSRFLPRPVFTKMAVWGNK

[2] = target: Glutathione S-transferase Mu 3 (Homo sapiens, UniProt P21266); assay: Substrates for human cytosolic glutathione transferase GSTM3
[3] = target: Hematopoietic prostaglandin D synthase (Homo sapiens, UniProt O60760); assay: Substrates for human cytosolic glutathione transferase PGDS
Leukotriene C4 synthase = Leukotriene C4 synthase (Homo sapiens, UniProt Q16873); assay: Substrates for human microsomal glutathione transferase LTC4S
[4] = target: Glutathione S-transferase 3, mitochondrial (Homo sapiens, UniProt O14880); assay: Substrates for human microsomal glutathione transferase MGST3
[5] = target: Microsomal glutathione S-transferase 2 (Homo sapiens, UniProt Q99735); assay: Substrates for human microsomal glutathione transferase MGST2
[6] = target: T2, Nuclear receptor subfamily 1 group I member 3 (Homo sapiens, UniProt Q14994); assay: (§1) Constitutive androstane receptor indirect activator
T2 sequence (Q14994 whole entry): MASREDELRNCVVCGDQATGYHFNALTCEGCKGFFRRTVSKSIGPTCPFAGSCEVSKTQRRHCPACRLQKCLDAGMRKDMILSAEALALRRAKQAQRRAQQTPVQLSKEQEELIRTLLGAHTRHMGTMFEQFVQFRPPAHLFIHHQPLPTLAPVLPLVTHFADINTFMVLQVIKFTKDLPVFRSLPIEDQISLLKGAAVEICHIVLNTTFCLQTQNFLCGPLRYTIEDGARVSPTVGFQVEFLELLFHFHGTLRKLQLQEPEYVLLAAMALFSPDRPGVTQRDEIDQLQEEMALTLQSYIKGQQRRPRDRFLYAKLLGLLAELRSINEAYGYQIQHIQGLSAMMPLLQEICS

[7] = target: T3, Nuclear receptor subfamily 1 group I member 3 (Mus musculus, UniProt O35627); assay: as §1
T3 sequence (O35627 whole entry): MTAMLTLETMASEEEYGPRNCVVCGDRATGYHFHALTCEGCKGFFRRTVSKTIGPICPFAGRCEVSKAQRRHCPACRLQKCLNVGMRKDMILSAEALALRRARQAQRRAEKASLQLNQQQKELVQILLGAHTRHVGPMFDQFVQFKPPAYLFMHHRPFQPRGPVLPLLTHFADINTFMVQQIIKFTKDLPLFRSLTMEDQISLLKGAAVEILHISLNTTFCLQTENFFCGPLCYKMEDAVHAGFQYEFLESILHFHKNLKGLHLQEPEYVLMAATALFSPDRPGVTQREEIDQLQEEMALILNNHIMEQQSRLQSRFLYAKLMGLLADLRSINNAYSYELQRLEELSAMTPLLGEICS

Cytochrome P450 2C8 = target: T4, Cytochrome P450 2C8 (Homo sapiens, UniProt P10632); assay: Clinically relevant inducers of human liver microsomal P450 enzymes, isoform CYP2C8; details: microsomes
T4 sequence (P10632 whole entry): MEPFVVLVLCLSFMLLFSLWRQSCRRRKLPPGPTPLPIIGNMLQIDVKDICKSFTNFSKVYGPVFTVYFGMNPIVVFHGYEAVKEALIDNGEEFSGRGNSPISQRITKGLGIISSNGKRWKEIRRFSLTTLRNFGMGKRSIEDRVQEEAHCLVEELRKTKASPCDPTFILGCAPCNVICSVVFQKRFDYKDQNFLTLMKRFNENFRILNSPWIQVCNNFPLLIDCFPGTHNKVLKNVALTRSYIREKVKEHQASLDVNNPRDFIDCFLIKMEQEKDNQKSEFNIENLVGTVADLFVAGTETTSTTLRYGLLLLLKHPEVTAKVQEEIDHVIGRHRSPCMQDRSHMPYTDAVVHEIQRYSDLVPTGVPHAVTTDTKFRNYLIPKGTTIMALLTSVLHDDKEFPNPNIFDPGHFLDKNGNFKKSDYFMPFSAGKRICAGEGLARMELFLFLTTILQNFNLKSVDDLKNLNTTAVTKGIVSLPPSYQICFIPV

Cytochrome P450 2C19 = Cytochrome P450 2C19 (Homo sapiens, UniProt P33261); assay: Clinically relevant inducers of human liver microsomal P450 enzymes, isoform CYP2C19; details: microsomes
Cytochrome P450 2B6 = target: T5, Cytochrome P450 2B6 (Homo sapiens, UniProt P20813); assay: Clinically relevant inducers of human liver microsomal P450 enzymes, isoform CYP2B6; details: microsomes
T5 sequence (P20813 whole entry): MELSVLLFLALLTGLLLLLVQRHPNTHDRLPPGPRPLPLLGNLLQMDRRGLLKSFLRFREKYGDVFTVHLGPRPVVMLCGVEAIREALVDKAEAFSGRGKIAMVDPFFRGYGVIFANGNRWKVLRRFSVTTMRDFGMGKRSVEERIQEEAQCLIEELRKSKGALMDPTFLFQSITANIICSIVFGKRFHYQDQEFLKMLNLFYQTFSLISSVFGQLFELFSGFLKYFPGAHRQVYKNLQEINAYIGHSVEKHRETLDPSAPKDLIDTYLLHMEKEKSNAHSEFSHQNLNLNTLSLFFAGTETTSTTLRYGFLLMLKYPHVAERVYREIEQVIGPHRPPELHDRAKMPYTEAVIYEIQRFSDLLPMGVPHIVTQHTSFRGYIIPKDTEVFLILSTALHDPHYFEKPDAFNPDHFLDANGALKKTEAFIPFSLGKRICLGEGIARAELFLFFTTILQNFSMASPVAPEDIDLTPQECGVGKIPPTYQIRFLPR

Cytochrome P450 2C9 = Cytochrome P450 2C9 (Homo sapiens, UniProt P11712); assay: Clinically relevant inducers of human liver microsomal P450 enzymes, isoform CYP2C9; details: microsomes
Sequence of Cytochrome P450 2C9 (P11712 whole entry, canonical isoform): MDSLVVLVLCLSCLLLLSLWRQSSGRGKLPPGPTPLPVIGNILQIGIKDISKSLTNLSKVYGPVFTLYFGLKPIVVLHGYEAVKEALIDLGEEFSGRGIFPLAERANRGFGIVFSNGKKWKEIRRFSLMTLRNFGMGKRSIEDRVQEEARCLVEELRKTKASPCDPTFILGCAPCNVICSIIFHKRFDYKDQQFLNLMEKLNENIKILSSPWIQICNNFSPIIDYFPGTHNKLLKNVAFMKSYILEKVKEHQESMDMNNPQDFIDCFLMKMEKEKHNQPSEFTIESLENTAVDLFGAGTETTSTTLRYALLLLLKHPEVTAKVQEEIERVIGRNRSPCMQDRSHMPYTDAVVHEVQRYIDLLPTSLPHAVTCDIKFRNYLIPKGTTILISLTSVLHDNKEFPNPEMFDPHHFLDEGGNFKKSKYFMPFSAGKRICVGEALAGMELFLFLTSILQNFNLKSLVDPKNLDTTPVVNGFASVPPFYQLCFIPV

Sequence of Glutathione S-transferase Mu 3 (P21266 whole entry): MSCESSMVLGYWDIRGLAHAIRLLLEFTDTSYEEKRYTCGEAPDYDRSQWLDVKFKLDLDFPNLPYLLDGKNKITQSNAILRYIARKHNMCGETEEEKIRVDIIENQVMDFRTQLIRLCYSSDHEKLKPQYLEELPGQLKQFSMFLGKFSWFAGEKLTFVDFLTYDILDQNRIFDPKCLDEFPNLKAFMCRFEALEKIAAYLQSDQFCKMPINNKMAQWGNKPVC
Sequence of Cytochrome P450 2C19 (P33261 whole entry, canonical isoform): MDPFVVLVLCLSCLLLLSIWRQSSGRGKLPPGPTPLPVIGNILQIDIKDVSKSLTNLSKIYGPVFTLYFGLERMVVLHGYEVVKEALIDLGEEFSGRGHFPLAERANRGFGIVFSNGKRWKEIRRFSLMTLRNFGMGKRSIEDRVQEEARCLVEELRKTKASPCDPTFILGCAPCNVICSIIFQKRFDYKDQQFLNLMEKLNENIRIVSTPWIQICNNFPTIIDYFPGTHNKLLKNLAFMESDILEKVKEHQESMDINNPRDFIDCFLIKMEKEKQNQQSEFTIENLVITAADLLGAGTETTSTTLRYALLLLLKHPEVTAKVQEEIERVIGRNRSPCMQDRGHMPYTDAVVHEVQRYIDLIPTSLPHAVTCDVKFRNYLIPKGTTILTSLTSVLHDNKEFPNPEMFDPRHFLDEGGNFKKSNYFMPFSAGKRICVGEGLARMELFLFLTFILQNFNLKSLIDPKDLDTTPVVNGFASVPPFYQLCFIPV
Sequence of Hematopoietic prostaglandin D synthase (O60760 whole entry): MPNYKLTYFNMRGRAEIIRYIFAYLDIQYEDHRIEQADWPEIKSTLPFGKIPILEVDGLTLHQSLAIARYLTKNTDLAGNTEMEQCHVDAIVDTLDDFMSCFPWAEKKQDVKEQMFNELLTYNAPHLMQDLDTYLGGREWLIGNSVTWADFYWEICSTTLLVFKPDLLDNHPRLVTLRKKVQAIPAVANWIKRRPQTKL
Sequence of Prostaglandin E synthase (O14684 whole entry): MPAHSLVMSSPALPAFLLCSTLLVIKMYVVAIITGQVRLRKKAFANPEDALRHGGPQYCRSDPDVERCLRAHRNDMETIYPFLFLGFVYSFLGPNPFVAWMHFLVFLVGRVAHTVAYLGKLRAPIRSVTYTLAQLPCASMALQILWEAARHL
Sequence of Leukotriene C4 synthase (Q16873 whole entry): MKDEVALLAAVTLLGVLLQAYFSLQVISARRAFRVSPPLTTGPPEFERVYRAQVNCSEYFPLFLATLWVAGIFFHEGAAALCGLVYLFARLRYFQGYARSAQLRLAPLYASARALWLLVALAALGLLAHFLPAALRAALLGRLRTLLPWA
Sequence of Glutathione S-transferase 3, mitochondrial (O14880 whole entry): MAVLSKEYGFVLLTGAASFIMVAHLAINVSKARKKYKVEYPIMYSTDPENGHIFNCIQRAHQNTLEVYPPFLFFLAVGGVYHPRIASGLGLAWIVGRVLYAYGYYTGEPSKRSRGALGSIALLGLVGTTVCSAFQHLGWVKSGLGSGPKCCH
Sequence of Microsomal glutathione S-transferase 2 (Q99735 whole entry): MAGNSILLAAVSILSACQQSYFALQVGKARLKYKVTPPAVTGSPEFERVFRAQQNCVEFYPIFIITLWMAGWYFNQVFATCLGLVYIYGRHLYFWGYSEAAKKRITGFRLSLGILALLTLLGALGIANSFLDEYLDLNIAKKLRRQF

`CCCCC[C@H](O)/C=C/[C@H]1C2CC(OO2)[C@@H]1C/C=C\CCCC(=O)O` (stereo partly drawn) was tested, and the Activity (Prostaglandin E synthase) was “Substrate”, the Activity [1] was “Substrate” and the Activity [2] was “Substrate”. For the same compound, the Activity [3] was “Substrate”.

For `CCCCC/C=C\C\C=C/C=C/C=C/[C@@H]1O[C@H]1CCCC(=O)O` [LEUKOTRIENE A4], the Activity (Leukotriene C4 synthase) was “Substrate”, the Activity [4] was “Substrate” and the Activity [5] was “Substrate”.

With `CCC1(c2ccccc2)C(=O)NC(=O)NC1=O` [PHENOBARBITAL] the Activity [6] was “indirect activator”, the Activity [7] was “indirect activator” and the Activity (Cytochrome P450 2C8) was “Inducer”. For the same compound, the Activity (Cytochrome P450 2C19) was “Inducer”, the Activity (Cytochrome P450 2B6) was “Inducer” and the Activity (Cytochrome P450 2C9) was “Inducer”.

— ChEMBL document CHEMBL1743201, “Casarett and Doull's Toxicology The Basic Science of Poisons, 7th edition” (2008)
